Measured values as given in US8952024B2, “Herbicidal pyrimidone derivatives” (E I du Pont de Nemours and Company, priority 2009, dated 2015).

Legend:
Format in all cases: in vivo
[1] = test system: bermudagrass (Cynodon dactylon); test: Test B pre-/postemergence plant response
Procedure, shortened: (§1)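 Greenhouse herbicide screen. Pre- and postemergence (1- to 4-leaf) spray of compound in solvent/surfactant mixture; loam–sand soil for pre, peat/vermiculite medium for post. Visual control rating 0–100 at 13 to 15 days after treatment.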

[2] = test system: blackgrass (Alopecurus myosuroides); test: Test B pre-/postemergence plant response
Procedure, shortened: as §1

[3] = test system: cocklebur (Xanthium strumarium); test: Test B pre-/postemergence plant response
Procedure, shortened: as §1

[4] = test system: downy bromegrass (Bromus tectorum); test: Test B pre-/postemergence plant response
Procedure, shortened: as §1

[5] = test system: giant foxtail (Setaria faberii); test: Test B pre-/postemergence plant response
Procedure, shortened: as §1

[6] = test system: green foxtail (Setaria viridis); test: Test B pre-/postemergence plant response
Procedure, shortened: as §1

[7] = test system: johnsongrass (Sorghum halepense); test: Test B pre-/postemergence plant response
Procedure, shortened: as §1

kochia (Kochia scoparia) = test: Test B pre-/postemergence plant response
Procedure, shortened: as §1

[8] = test system: morningglory (Ipomoea coccinea); test: Test B pre-/postemergence plant response
Procedure, shortened: as §1

[9] = test system: ragweed (common ragweed, Ambrosia elatior); test: Test B pre-/postemergence plant response
Procedure, shortened: as §1

soybean (Glycine max) = test: Test B pre-/postemergence plant response
Procedure, shortened: as §1

[10] = test system: velvetleaf (Abutilon theophrasti); test: Test B pre-/postemergence plant response
Procedure, shortened: as §1

[11] = test system: wheat (Triticum aestivum); test: Test B pre-/postemergence plant response
Procedure, shortened: as §1

wild oat (Avena fatua) = test: Test B pre-/postemergence plant response
Procedure, shortened: as §1

[12] = test system: yellow nutsedge (Cyperus esculentus); test: Test B pre-/postemergence plant response
Procedure, shortened: as §1

[13] = test system: canarygrass (Phalaris minor); test: Test B postemergence plant response; conditions: Postemergence
Procedure, shortened: (§2)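 Plants grown in peat/vermiculite medium were sprayed postemergence at 2–18 cm height (1- to 4-leaf stage). After 13–15 days in the greenhouse, response was rated visually against untreated controls on a 0–100 scale (0 no effect, 100 complete control).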

[14] = test system: chickweed (Stellaria media); test: Test B postemergence plant response; conditions: Postemergence
Procedure, shortened: as §2

[15] = test system: windgrass (Apera spica-venti); test: Test B postemergence plant response; conditions: Postemergence
Procedure, shortened: as §2

[16] = 250 g ai/ha, Preemergence, 0 to 100 scale
[17] = Postemergence, 31 g ai/ha, scale 0 to 100 (0 no effect, 100 complete control)
[18] = Postemergence, 62 g ai/ha, scale 0 (no effect) to 100 (complete control), 13 to 15 days
[19] = Postemergence, 250 g ai/ha, scale 0 to 100
[20] = Preemergence, 31 g ai/ha, scale 0 to 100 (0 no effect, 100 complete control)
[21] = Preemergence, 62 g ai/ha, scale 0 to 100, 0 no effect, 100 complete control
[22] = Preemergence, 125 g ai/ha, 0 to 100 scale
[23] = Postemergence, 125 g ai/ha, visual rating after 13 to 15 days, scale 0 (no effect) to 100 (complete control)
[24] = 31 g ai/ha, scale 0 to 100 (0 no effect, 100 complete control)
[25] = 62 g ai/ha, scale 0 (no effect) to 100 (complete control), 13 to 15 days
[26] = 125 g ai/ha, visual rating after 13 to 15 days, scale 0 (no effect) to 100 (complete control)

5-[(2-hydroxy-6-oxo-1-cyclohexen-1-yl)carbonyl]-3-(2-methoxyethyl)-2-(3-thienyl)-4(3H)-pyrimidinone [Compound 97]
Plant response rating, Bermudagrass [1, 16]: 100 | Plant response rating, Bermudagrass [1, 17]: 70 | Plant response rating, Bermudagrass [1, 18]: 75 | Plant response rating, Bermudagrass ([1]; Postemergence, 125 g ai/ha, scale 0 to 100 (0 no effect, 100 complete control), 13 to 15 days): 90 | Bermudagrass plant response rating [1, 19]: 95 | Plant response rating, Bermudagrass [1, 20]: 45 | Plant response rating, Bermudagrass [1, 21]: 80 | Bermudagrass plant response rating [1, 22]: 100 | Plant response rating, Blackgrass [2, 16]: 20 | Plant response rating, Blackgrass [2, 17]: 0 | Plant response rating, Blackgrass [2, 18]: 0 | Plant response rating, Blackgrass [2, 23]: 50 | Blackgrass plant response rating [2, 19]: 50 | Plant response rating, Blackgrass [2, 20]: 0 | Plant response rating, Blackgrass [2, 21]: 0 | Blackgrass plant response rating [2, 22]: 0 | Plant response rating, Cocklebur [3, 16]: 98 | Plant response rating, Cocklebur [3, 17]: 70 | Plant response rating, Cocklebur [3, 18]: 90 | Plant response rating, Cocklebur [3, 23]: 95 | Cocklebur plant response rating [3, 19]: 98 | Plant response rating, Cocklebur [3, 20]: 0 | Plant response rating, Cocklebur [3, 21]: 15 | Cocklebur plant response rating [3, 22]: 65 | Plant response rating, Bromegrass, Downy [4, 16]: 0 | Plant response rating, Bromegrass, Downy [4, 17]: 0 | Plant response rating, Bromegrass, Downy [4, 18]: 0 | Plant response rating, Bromegrass, Downy [4, 23]: 10 | Bromegrass, Downy plant response rating [4, 19]: 20 | Plant response rating, Bromegrass, Downy [4, 20]: 0 | Plant response rating, Bromegrass, Downy [4, 21]: 0 | Bromegrass, Downy plant response rating [4, 22]: 0 | Plant response rating, Foxtail, Giant [5, 16]: 45 | Plant response rating, Foxtail, Giant [5, 17]: 70 | Plant response rating, Foxtail, Giant [5, 18]: 75 | Plant response rating, Foxtail, Giant [5, 23]: 80 | Foxtail, Giant plant response rating [5, 19]: 95 | Plant response rating, Foxtail, Giant [5, 20]: 0 | Plant response rating, Foxtail, Giant [5, 21]: 0 | Foxtail, Giant plant response rating [5, 22]: 0 | Plant response rating, Foxtail, Green [6, 16]: 30 | Plant response rating, Foxtail, Green [6, 17]: 10 | Plant response rating, Foxtail, Green [6, 18]: 25 | Plant response rating, Foxtail, Green [6, 23]: 70 | Foxtail, Green plant response rating [6, 19]: 70 | Plant response rating, Foxtail, Green [6, 20]: 0 | Plant response rating, Foxtail, Green [6, 21]: 0 | Foxtail, Green plant response rating [6, 22]: 0 | Plant response rating, Johnsongrass [7, 16]: 75 | Plant response rating, Johnsongrass [7, 17]: 0 | Plant response rating, Johnsongrass [7, 18]: 55 | Plant response rating, Johnsongrass [7, 23]: 60 | Johnsongrass plant response rating [7, 19]: 75 | Plant response rating, Johnsongrass [7, 20]: 0 | Plant response rating, Johnsongrass [7, 21]: 10 | Johnsongrass plant response rating [7, 22]: 60 | Plant response rating, Kochia (kochia (Kochia scoparia); [16]): 100 | Plant response rating, Kochia (kochia (Kochia scoparia); [17]): 10 | Plant response rating, Kochia (kochia (Kochia scoparia); [18]): 15 | Plant response rating, Kochia (kochia (Kochia scoparia); [23]): 15 | Kochia plant response rating (kochia (Kochia scoparia); [19]): 20 | Plant response rating, Kochia (kochia (Kochia scoparia); [20]): 0 | Plant response rating, Kochia (kochia (Kochia scoparia); [21]): 50 | Kochia plant response rating (kochia (Kochia scoparia); [22]): 100 | Plant response rating, Morningglory [8, 16]: 40 | Plant response rating, Morningglory [8, 17]: 0 | Plant response rating, Morningglory [8, 18]: 45 | Plant response rating, Morningglory [8, 23]: 45 | Morningglory plant response rating [8, 19]: 55 | Plant response rating, Morningglory [8, 20]: 0 | Plant response rating, Morningglory [8, 21]: 0 | Morningglory plant response rating [8, 22]: 0 | Plant response rating, Ragweed [9, 16]: 100 | Plant response rating, Ragweed [9, 17]: 75 | Plant response rating, Ragweed [9, 18]: 80 | Plant response rating, Ragweed [9, 23]: 90 | Ragweed plant response rating [9, 19]: 98 | Plant response rating, Ragweed [9, 20]: 98 | Plant response rating, Ragweed [9, 21]: 100 | Ragweed plant response rating [9, 22]: 100 | Plant response rating, Soybean (soybean (Glycine max); [16]): 75 | Plant response rating, Soybean (soybean (Glycine max); [17]): 95 | Plant response rating, Soybean (soybean (Glycine max); [18]): 95 | Plant response rating, Soybean (soybean (Glycine max); [23]): 95 | Soybean plant response rating (soybean (Glycine max); [19]): 98 | Plant response rating, Soybean (soybean (Glycine max); [20]): 10 | Plant response rating, Soybean (soybean (Glycine max); [21]): 60 | Soybean plant response rating (soybean (Glycine max); [22]): 65 | Plant response rating, Velvetleaf [10, 16]: 100 | Plant response rating, Velvetleaf [10, 17]: 70 | Plant response rating, Velvetleaf [10, 18]: 70 | Plant response rating, Velvetleaf [10, 23]: 75 | Velvetleaf plant response rating [10, 19]: 85 | Plant response rating, Velvetleaf [10, 20]: 55 | Plant response rating, Velvetleaf [10, 21]: 100 | Velvetleaf plant response rating [10, 22]: 100 | Plant response rating, Wheat [11, 16]: 5 | Plant response rating, Wheat [11, 17]: 0 | Plant response rating, Wheat [11, 18]: 0 | Plant response rating, Wheat [11, 23]: 0 | Wheat plant response rating [11, 19]: 5 | Plant response rating, Wheat [11, 20]: 0 | Wheat plant response rating [11, 22]: 0 | Plant response rating, Oat, Wild (wild oat (Avena fatua); [16]): 10 | Plant response rating, Oat, Wild (wild oat (Avena fatua); [17]): 0 | Plant response rating, Oat, Wild (wild oat (Avena fatua); [18]): 5 | Plant response rating, Oat, Wild (wild oat (Avena fatua); [23]): 20 | Oat, Wild plant response rating (wild oat (Avena fatua); [19]): 40 | Plant response rating, Oat, Wild (wild oat (Avena fatua); [20]): 0 | Plant response rating, Oat, Wild (wild oat (Avena fatua); [21]): 0 | Oat, Wild plant response rating (wild oat (Avena fatua); [22]): 0 | Plant response rating, Nutsedge, Yellow [12, 16]: 75 | Plant response rating, Nutsedge, Yellow [12, 17]: 15 | Plant response rating, Nutsedge, Yellow [12, 18]: 55 | Plant response rating, Nutsedge, Yellow [12, 23]: 60 | Nutsedge, Yellow plant response rating [12, 19]: 75 | Plant response rating, Nutsedge, Yellow [12, 20]: 0 | Plant response rating, Nutsedge, Yellow [12, 21]: 0 | Nutsedge, Yellow plant response rating [12, 22]: 55 | Plant response rating, Canarygrass [13, 24]: 0 | Plant response rating, Canarygrass [13, 25]: 0 | Plant response rating, Canarygrass [13, 26]: 5 | Canarygrass plant response rating ([13]; 250 g ai/ha, scale 0 to 100): 40 | Plant response rating, Chickweed [14, 24]: 90 | Plant response rating, Chickweed [14, 25]: 95 | Plant response rating, Chickweed [14, 26]: 95 | Chickweed plant response rating ([14]; 250 g ai/ha, scale 0 to 100): 98 | Plant response rating, Windgrass [15, 24]: 5 | Plant response rating, Windgrass [15, 25]: 10 | Plant response rating, Windgrass [15, 26]: 30 | Windgrass plant response rating ([15]; 250 g ai/ha, scale 0 to 100): 40
